In patent US8048880B2, “Treatment of cardiovascular disease and dyslipidemia using secretory phospholipase A2 (SPLA2) inhibitors and SPLA2 inhibitor combination therapies” (Anthera Pharmaceuticals, Inc., priority 2007, dated 2011):

What was measured:
Format in all cases: in vivo
ApoE−/− mice [1] = experiment: Plasma total cholesterol levels in ApoE−/− mice on high fat diet (Example 1); conditions: at 16 weeks
Procedure: (§1) Male ApoE^−/− mice were fed a high fat diet (21% fat, 0.15% cholesterol, 19.5% casein) ad libitum for two weeks in order to acclimate to the diet. Plasma cholesterol levels and body weight were measured in order to obtain baseline levels, and mice were randomized into three groups of 20 mice based on these measurements. After the acclimation period, mice remained on the high fat diet and were administered A-002 (30 mg/kg or 90 mg/kg) or vehicle only (5% acacia) twice a day for 16 weeks by oral gavage.
Plasma cholesterol levels and body weight were measured at 4, 8, 12, and 16 weeks after the start of A-002 administration. Comparisons of measurements between test and control mice at each time period were performed using a two-way analysis of variance test (ANOVA) for repeated measures, followed by post-hoc Bonferroni test for significance.

ApoE−/− mice [2] = experiment: Atherosclerotic plaque coverage of the aorta in ApoE−/− mice (Example 1); conditions: at 16 weeks
Procedure: as §1
At the end of the 16th week, mice were sacrificed and plasma samples, heart tissue, and aortas from the heart to approximately 3 mm distal to the iliac bifurcation were collected. Aortas were placed on microscope slides and stained with Oil Red O for scanning and image analysis of atherosclerotic lesion size. Vessel images were captured using a Microtek Scanmaker 9600XL scanner (Microtek, Carson, Calif.) and Photoshop 6.0 software (Adobe Systems Inc., San Jose, Calif.). Atherosclerotic plaque coverage was quantified for the entire length of the vessel including the arch using Image-Pro Plus software. Vessels were also analyzed for plaque coverage in the descending abdominal aorta, starting in the region of the first intercostal branches to the iliac bifurcation (not including the arch). Plaque content was expressed as a percent of the aortic surface. […]

ApoE−/− mice [3] = experiment: Angiotensin II-mediated atherosclerotic plaque formation and aneurysm in ApoE−/− mice (Example 2)
Procedure: A mouse model of accelerated atherosclerosis was utilized to determine the effect of A-002 administration on atherosclerosis and aneurysm formation. ApoE^−/− mice acclimated to the same high fat diet utilized in Example 1 were administered angiotensin II with water, angiotensin with 5% acacia, or saline infusion and water twice daily for four weeks. […] At the end of the test period, plaque coverage was assessed by three independent reviewers, and their assessments were averaged to determine plaque coverage.

ApoE−/− mice [4] = experiment: En face lesion size in ApoE−/− mice on high fat diet, A-002 and/or statin (Example 3); conditions: alone or plus 0.02 g/kg pravastatin, 12 weeks
Procedure: (§2) Body weight, plasma total cholesterol, and plasma HDL levels were measured for six groups of twelve ApoE^−/− mice. The mice were then placed on a high fat diet for twelve weeks to allow for formation of significant fatty atherosclerotic plaques. The high fat diet was a modified version of the Western diet (TD.88137, Harlan Teklad, Madison, Wis.) consisting of casein (195 g/kg), DL-methionine (3 g/kg), sucrose (341.44 g/kg), corn starch (150 g/kg), anhydrous milkfat (210 g/kg), cholesterol (1.5 g/kg), cellulose (50 g/kg), mineral mix AlN-76 (Teklad; 35 g/kg), calcium carbonate (4 g/kg), vitamin mix (Teklad #40060; 10 g/kg), ethyoxyquin (antioxidant, 0.04 g/kg), and either 0.0156 g/kg (“low dose”) A-002 (Group A), 1.56 g/kg (“high dose”) A-002 (Group B), 0.02 g/kg pravastatin (Group C), low dose A-002 plus 0.02 g/kg pravastatin (Group D), high dose A-002 plus 0.02 g/kg pravastatin (Group E), or vehicle only (Group F). Mice were administered diets A-F in a blinded manner, and food was provided ad libitum. The diet was initially prepared based on the assumption that each mouse weighed 22.5 g and ate 4.5 g/day. Based on body weight and food consumption, the diet was modified over the 12 week course of treatment to adjust for a body weight of 26 g and a food intake of 2.5 g/day. The dosages of A-002 were selected to cover a range of 100-fold based on pharmacokinetics in ApoE^−/− mice as well as toxicology and previously observed efficacy in this model.
After twelve weeks, mice were sacrificed and plasma, heart tissue, and aortic tissue were collected. En face lesion size was determined via digital imaging analysis. Plaque content (as measured as en face lesion) was reduced in mice administered A-002 alone, statin alone, or A-002 in combination with statin. The reduction in plaque content in mice administered A-002 plus statin was substantially greater than the reduction in mice administered either compound alone (Table 2, compare Group D vs. Groups A and C; Group E vs. Groups B and C). Further, the reduction in plaque content in mice administered A-002 plus statin was substantially greater than the sum of the reduction in plaque content in mice administered A-002 alone and mice administered statin alone.

ApoE−/− mice [5] = experiment: Plasma total cholesterol and HDL levels in ApoE−/− mice, A-002 and/or statin (Example 3); conditions: alone or plus 0.02 g/kg pravastatin, 12 weeks
Procedure: as §2
Plasma total cholesterol and HDL levels were measured. Mean levels of total cholesterol were decreased in mice administered A-002 alone or in combination with statin (Table 3, FIG. 6). […] Mean levels of HDL were increased in mice administered A-002 at either dosage (Table 4). This increase was greater in mice administered high dose A-002 plus statin than in mice administered high dose A-002 or statin alone (Table 4 compare Group E vs. Groups B and C; FIG. 7).

[6] = high dose A-002 (1.56 g/kg diet)
[7] = low dose A-002 (0.0156 g/kg diet)

SMILES: CCc1c(C(=O)C(N)=O)c2c(OCC(=O)OC)cccc2n1Cc1ccccc1 [A-002, [[3-(2-Amino-1,2-dioxoethyl)-2-ethyl-1-(phenylmethyl)-1H-indol-4-yl]oxy]acetic acid methyl ester]
- change from baseline in total cholesterol (ApoE−/− mice [1]; 30 mg/kg A-002 twice a day): −10%
- change from baseline in total cholesterol (ApoE−/− mice [1]; 90 mg/kg A-002 twice a day): −12%
- plaque coverage in aortic tissue (ApoE−/− mice [2]; 30 mg/kg A-002 twice a day): 6.3%
- plaque coverage in aortic tissue (ApoE−/− mice [2]; 90 mg/kg A-002 twice a day): 6.8%
- Aneurysm rate (%) (ApoE−/− mice [3]; angiotensin II + 5% acacia + 30 mg/kg A-002 twice daily, four weeks): 0% (0/16)
- plaque content (ApoE−/− mice [3]; angiotensin II/acacia mice, 30 mg/kg A-002 twice daily, four weeks (FIG. 4)): significantly decreased
- Change in mean % en face lesion vs. control (ApoE−/− mice [4]; [6]): −4.158%
- Mean % en face lesion (ApoE−/− mice [4]; [6]): 1.469%
- Change in mean % en face lesion vs. control (ApoE−/− mice [4]; [7]): −2.241%
- Mean % en face lesion (ApoE−/− mice [4]; [7]): 3.386%
- Mean HDL concentration (ApoE−/− mice [5]; [6]): 17.167 mg/dL
- Mean total cholesterol concentration (ApoE−/− mice [5]; [6]): 1301.750 mg/dL
- Mean HDL concentration (ApoE−/− mice [5]; [7]): 21.000 mg/dL
- Mean total cholesterol concentration (ApoE−/− mice [5]; [7]): 1355.545 mg/dL
